Assay [1] concerns SARS-CoV-2 replicon. Kind of assay: microbe, parasite or virus in culture. In kind it is cell-based. The following applies: Severe acute respiratory syndrome coronavirus 2, Huh-7.
The target in assay [2] is SARS-CoV-2 Papain-like (PLpro) protease (Severe acute respiratory syndrome coronavirus 2, UniProt P0DTD1). Kind of assay: SARS-CoV-2 Papain-like (PLpro) protease biochemical enzyme inhibition assay (ubiquitin-fluorophore substrate, Ub-R110). The following applies: Ub-R110 substrate; run in duplicate; read-out: PLpro IC50.

The EC50 is the concentration that produces a half-maximal response. What is called IC50 is the concentration needed to halve the response being measured. In assay [1], `O=C(NCC#Cc1nccs1)C(=O)NCc1ccccc1C(=O)NC1(c2cc3ccccc3cn2)CC1` [Example 394] registered an EC50 of less than 1000 nM. Further, the IC50 in assay [2] was less than 100 nM.
The like results for `N#CCNC(=O)C(=O)NCc1ccccc1C(=O)NC1(c2cc(C#N)cc3ccccc23)CC1` [Example 294] were, in that order, less than 1000 nM and less than 100 nM.
The like results for `COc1cc(C2(NC(=O)c3ccccc3CNC(=O)C(=O)N[C@@H](C)C#Cc3nccs3)CC2)cc2cn(C3CC3)nc12` [Example 336] were, in that order, less than 1000 nM and less than 100 nM.
The like results for `C#CCNC(=O)C(=O)NCc1ccccc1C(=O)NC1(c2ccc(F)c(Br)c2)CC1` [Example 227] were, in that order, less than 1000 nM and less than 100 nM.
In assay [1], `O=C(NCC#Cc1cscn1)C(=O)NCc1ccccc1C(=O)NC1(c2cccc3ccccc23)CC1` [Example 159] showed an EC50 of less than 1000 nM. In assay [2], the IC50 is less than 100 nM.
Consider `C[C@@H](C#Cc1nccs1)NC(=O)C(=O)NCc1ccccc1C(=O)N[C@H](C)c1cc(F)cc(-c2cnn(C3CC3)c2)c1` [Example 495], for which the EC50 in assay [1] is less than 1000 nM. Also, the IC50 in assay [2] is less than 100 nM.
The like results for `N#CCNC(=O)C(=O)NCc1ccccc1C(=O)NC1(c2cc(-c3cccs3)cc(-c3cccs3)c2)CC1` [Example 452] were, in that order, 1000 to 10000 nM and less than 100 nM.
In turn, `Cc1nn(C)c(C)c1-c1cc(C2(NC(=O)c3ccccc3CNC(=O)C(=O)NCC#Cc3nccs3)CC2)c2ccccc2c1` [Example 300] yielded an EC50 in assay [1] of less than 1000 nM. In addition, the IC50 in assay [2] was less than 100 nM.
The like results for `N#CN1CC(CNC(=O)C(=O)NCc2ccccc2C(=O)NC2(c3cccc4ccccc34)CC2)C1` [Example 435] were, in that order, less than 1000 nM and less than 100 nM.
Molecule `CON(C)C(=O)/C=C/CNC(=O)C(=O)NCc1ccccc1C(=O)NC1(c2cccc3ccccc23)CC1` [Example 573] displayed an EC50 in assay [1] of 1000 to 10000 nM. In addition, the half-maximal inhibitory concentration (IC50) in assay [2] was 100 to 1000 nM.
Turning to `N#Cc1cccc(NC(=O)/C=C/CNC(=O)C(=O)NCc2ccccc2C(=O)NC2(c3cccc4ccccc34)CC2)c1` [Example 574], the EC50 in assay [1] lay within 1000 to 10000 nM. In addition, the IC50 in assay [2] was 100 to 1000 nM.
In assay [1], `COC(=O)/C=C/CNC(=O)C(=O)NCc1ccccc1C(=O)N[C@H](C)c1cc(-c2cccs2)cc(C(F)(F)F)c1` [Example 461] yielded an EC50 of less than 1000 nM. Besides, the IC50 in assay [2] is less than 100 nM.
Take `C#CCNC(=O)C(=O)NCc1ccccc1C(=O)NC1(c2cc(F)c(F)c(-c3cnn(C4CC4)c3)c2)CC1` [Example 242]: the half-maximal effective concentration (EC50) in assay [1] was less than 1000 nM. Moreover, in assay [2], the IC50 is less than 100 nM.
Regarding `O=C(NC/C=C/C(=O)n1cccn1)C(=O)NCc1ccccc1C(=O)NC1(c2cccc3ccccc23)CC1` [Example 567], in assay [1], the EC50 is 1000 to 10000 nM. For the same molecule, the IC50 in assay [2] fell in the range of 100 to 1000 nM.
The like results for `CC1(O)CN(c2cc(C3(NC(=O)c4ccccc4CNC(=O)C(=O)NCC#N)CC3)c3ccccc3c2)C1` [Example 319] were, in that order, 1000 to 10000 nM and less than 100 nM.
The like results for `Cn1ncc2cc(C3(NC(=O)c4ccccc4CNC(=O)C(=O)NCC#Cc4nccs4)CC3)ccc21` [Example 345] were, in that order, less than 1000 nM and less than 100 nM.
The molecule `CC(C)n1ccnc1C#CCNC(=O)C(=O)NCc1ccccc1C(=O)NC1(c2cc(F)cc(-c3cnn(C4CC4)c3)c2)CC1` [Example 277] had an EC50 in assay [1] of less than 1000 nM. Further, in assay [2], the IC50 is less than 100 nM.
The molecule `C#CCNC(=O)C(=O)NCc1ccccc1C(=O)NC1(c2ccc(F)c(-c3cn(C)nc3C)c2)CC1` [Example 237] had an EC50 in assay [1] of less than 1000 nM. Moreover, the IC50 in assay [2] was less than 100 nM.
The like results for `O=C(NCC#Cc1nccs1)C(=O)NCc1ccccc1C(=O)NC1(c2cc(-c3cnn(C4CC4)c3)cc(C3CC3)c2)CC1` [Example 134] were, in that order, less than 1000 nM and less than 100 nM.
The like results for `O=C(NCC#Cc1cc(F)ccn1)C(=O)NCc1ccccc1C(=O)NC1(c2ccc3ccccc3c2)CC1` [Example 187] were, in that order, less than 1000 nM and less than 100 nM.
The like results for `C#CCNC(=O)C(=O)NCc1ccccc1C(=O)NC1(c2cc(Cl)cc(C(=O)N(C)c3ccc(F)cc3)c2)CC1` [Example 77] were, in that order, 1000 to 10000 nM and less than 100 nM.
In assay [1], `N#CN1CC[C@@H](CNC(=O)C(=O)NCc2ccccc2C(=O)NC2(c3cccc4ccccc34)CC2)C1` [Example 509] returned a concentration giving a half-maximal response (EC50) of less than 1000 nM. Moreover, the IC50 in assay [2] is less than 100 nM.
`N#CCNC(=O)C(=O)NCc1ccccc1C(=O)NC1(c2cccc3cc(F)ccc23)CC1` [Example 54] showed an EC50 in assay [1] of less than 1000 nM. Moreover, the IC50 in assay [2] is less than 100 nM.
In assay [1], `N#CN1CCC(C(=O)NCc2ccccc2C(=O)NC2(c3cccc4ccccc34)CC2)C1` (stereo not drawn) [Example 115] registered a 50% effective concentration (EC50) of less than 1000 nM. Also, in assay [2], the IC50 is less than 100 nM.
`C#CCNC(=O)C(=O)NCc1ccccc1C(=O)NC1(c2cc(F)cc(-c3cnn(C)c3)c2)CC1` [Example 238] returned an EC50 in assay [1] of less than 1000 nM. The IC50 in assay [2] was less than 100 nM.
The like results for `O=C(NCC#CC(=O)N1CCCO1)C(=O)NCc1ccccc1C(=O)NC1(c2cccc3ccccc23)CC1` [Example 526] were, in that order, less than 1000 nM and less than 100 nM.
The like results for `C#CCNC(=O)C(=O)NCc1ccccc1C(=O)NC1(c2cc(Cl)cc(-c3cnc(C4CC4)nc3)c2)CC1` [Example 73] were, in that order, less than 1000 nM and less than 100 nM.
`O=C(NC/C=C/S(=O)(=O)c1ccccc1)C(=O)NCc1ccccc1C(=O)NC1(c2ccc3ccccc3c2)CC1` [Example 173] came in with an EC50 in assay [1] of less than 1000 nM. The IC50 in assay [2] was less than 100 nM.
The like results for `C#CCNC(=O)C(=O)NCc1ccccc1C(=O)NC1(c2cc(Cl)cc(-c3cnn(C4CC4)c3)c2)CC1` [Example 453] were, in that order, less than 1000 nM and less than 100 nM.
`O=C(NCC#Cc1ncccn1)C(=O)NCc1ccccc1C(=O)NC1(c2ccc3ccccc3c2)CC1` [Example 168] yielded an EC50 in assay [1] of less than 1000 nM. Further, the IC50 in assay [2] is less than 100 nM.
The like results for `COc1cc(C2(NC(=O)c3ccccc3CNC(=O)C(=O)N[C@@H](C)C#Cc3ncccc3Cl)CC2)cc2cn(C3CC3)nc12` [Example 279] were, in that order, less than 1000 nM and less than 100 nM.
The like results for `C#CCNC(=O)C(=O)NCc1ccccc1C(=O)NC1(c2cc(OC)cc(-c3cnn(C4CC4)c3)c2)CC1` [Example 244] were, in that order, less than 1000 nM and less than 100 nM.
The like results for `N#C/C=C/CNC(=O)C(=O)NCc1ccccc1C(=O)NC1(c2cc(Br)cc3ccccc23)CC1` [Example 152] were, in that order, less than 1000 nM and less than 100 nM.
In assay [1], `N#CC1(NC(=O)/C=C/CNC(=O)C(=O)NCc2ccccc2C(=O)NC2(c3cccc4ccccc34)CC2)CC1` [Example 564] gave an EC50 of 1000 to 10000 nM. The IC50 in assay [2] lay in the range of 100 to 1000 nM.
In turn, `Cc1cccnc1C#CCNC(=O)C(=O)NCc1ccccc1C(=O)NC1(c2cc(F)cc(-c3cnn(C4CC4)c3)c2)CC1` [Example 262] returned an EC50 in assay [1] of less than 1000 nM. Moreover, the IC50 in assay [2] was less than 100 nM.
The like results for `N#CN1CC(C(=O)NCc2ccccc2C(=O)NC2(c3cccc4ccccc34)CC2)C1` [Example 114] were, in that order, less than 1000 nM and less than 100 nM.
The like results for `Cn1cnc(C#CCNC(=O)C(=O)NCc2ccccc2C(=O)NC2(c3ccc4ccccc4c3)CC2)n1` [Example 398] were, in that order, less than 1000 nM and less than 100 nM.
The like results for `O=C(/C=C/CNC(=O)C(=O)NCc1ccccc1C(=O)NC1(c2cccc3ccccc23)CC1)NC1(C(F)(F)F)CC1` [Example 575] were, in that order, more than 10000 nM and 100 to 1000 nM.
Molecule `CN(C(=O)c1cc(Cl)cc(C2(NC(=O)c3ccccc3CNC(=O)C(=O)NCC#Cc3nccs3)CC2)c1)c1ccc(F)cc1` [Example 79] returned a 50% effective concentration (EC50) in assay [1] of less than 1000 nM. For the same molecule, the IC50 in assay [2] was less than 100 nM.
The like results for `O=C(NCC#CBr)C(=O)NCc1ccccc1C(=O)NC1(c2cc(Br)cc3ccccc23)CC1` [Example 154] were, in that order, less than 1000 nM and less than 100 nM.
The like results for `C#CCNC(=O)C(=O)NCc1ccccc1C(=O)NC1(c2cc(Cl)cc(-n3cccn3)c2)CC1` [Example 481] were, in that order, 1000 to 10000 nM and 100 to 1000 nM.
The like results for `O=C(NCC#Cc1cnccn1)C(=O)NCc1ccccc1C(=O)NC1(c2ccc3ccccc3c2)CC1` [Example 172] were, in that order, less than 1000 nM and less than 100 nM.
`CC(C)(O)c1ccc(-c2cc(C3(NC(=O)c4ccccc4CNC(=O)C(=O)NCC#N)CC3)c3ccccc3c2)s1` [Example 354] showed an EC50 in assay [1] of less than 1000 nM. Further, in assay [2], the IC50 was less than 100 nM.
With `Cn1cc2cc(C3(NC(=O)c4ccccc4CNC(=O)C(=O)NCC#Cc4nccs4)CC3)ccc2n1` [Example 337], in assay [1], the EC50 is less than 1000 nM. In assay [2], the IC50 was less than 100 nM.
`N#CCNC(=O)C(=O)NCc1ccccc1C(=O)NC1(c2cc(-c3cnn(C4CC4)c3)cc3ncccc23)CC1` [Example 415]: the EC50 in assay [1] lay within 1000 to 10000 nM. For the same molecule, in assay [2], the IC50 was less than 100 nM.
The like results for `N#CCNC(=O)C(=O)NCc1ccc(C(=O)N2CC(F)(F)C2)cc1C(=O)NC1(c2ccc(F)c3ccccc23)CC1` [Example 62] were, in that order, 1000 to 10000 nM and less than 100 nM.
The like results for `CC(C)(O)Cn1cc(-c2cc(F)cc(C3(NC(=O)c4ccccc4CNC(=O)C(=O)NCC#Cc4ncccc4Cl)CC3)c2)cn1` [Example 281] were, in that order, less than 1000 nM and less than 100 nM.
The like results for `COC(=O)/C=C/CNC(=O)C(=O)NCc1ccccc1C(=O)N[C@H](C)c1cc(-c2ccoc2)cc(C(F)(F)F)c1` [Example 465] were, in that order, less than 1000 nM and less than 100 nM.
In the case of `O=C(NC/C=C/C(=O)N1CCCO1)C(=O)NCc1ccccc1C(=O)NC1(c2cccc3ccccc23)CC1` [Example 568], the half-maximal effective concentration (EC50) in assay [1] is 1000 to 10000 nM. In addition, in assay [2], the IC50 was 100 to 1000 nM.
With `C[C@@H](C#Cc1ccccc1C#N)NC(=O)C(=O)NCc1ccccc1C(=O)NC1(c2ccc3nn(C)cc3c2)CC1` [Example 99], the 50% effective concentration (EC50) in assay [1] was less than 1000 nM. For the same molecule, the IC50 in assay [2] is less than 100 nM.
Regarding `Cn1ccc(-c2cc(C3(NC(=O)c4ccccc4CNC(=O)C(=O)NCC#N)CC3)c3ccccc3c2)n1` [Example 290], in assay [1], the EC50 is less than 1000 nM. In addition, in assay [2], the IC50 was less than 100 nM.

For the origin of these results see patent publication US20240327334A1, “Covalent Inhibitors As Antiviral Agents” (Enanta Pharmaceuticals, Inc., priority 2022, published 2024).
